Laboratory results as given in patent US8039233B2, “Nucleic acid sequences and their use in methods to identify umami modulatiors” (Givaudan S.A., priority 2007, dated 2011).
Entries after “also recorded” stand apart in the source; their conditions may differ.

Columns and labels:
[1] = tested on: CSR:T1R1 chimeric homomer; experiment: Fluo-4 calcium assay, cells transfected with CSR:T1R1; type: cell-based, human; conditions: Calcium Chloride 2 mM, 745047-97-6 25 μM, MSG 2.5 mM + IMP 0.2 mM; for CSR:T1R1 AVG (mean ΔF/F): HEK293T/Gα16-gustducin 44 cells, six replicates
Experimental: (§1) Fluo-4 is a fluorescent indicator for intracellular calcium and allows for determination of changes in the intracellular calcium concentration, in particular an increase in response to receptor activation occurring after ligand addition.
(§2) HEK293 cells stably expressing Gα16-gustducin 44 were used as host cells and transfected with various constructs as described in example 4.
(§3) Black, clear-bottom 96-well plates were used for all assays. They were seeded the day before with 8500 transfected cells per well and maintained at 37° C. overnight in an a growth medium appropriate for the cells used. For HEK293 cells, Dulbecco's Modified Eagle medium containing high glucose, L-glutamine, pyroxidine hydrochloride, and supplemented with 10% fetal bovine serum was used for growth and maintenance of the HEK293 cells.
(§4) At the time of the assay, the growth medium was discarded and cells were incubated for 1 hour (at 37° C. in the dark) with 50 μl of a calcium assay solution consisting of 1.5 μM Fluo-4 AM (Molecular Probes™, Invitrogen, US) and 2.5 μM probenicid (Sigma-Aldrich) dissolved in a reduced calcium C1 buffer solution. Reduced calcium C1 buffer solution contains 130 mM NaCl, 5 mM KCl, 10 mM Hepes, 0.5 mM CaCl2 (reduced from 2 mM) and 10 mM glucose (pH 7.4).
(§5) After the initial 1 hour loading period, the plates were washed 5 times with 100 μl per well of reduced calcium C1 buffer using an automated plate washer (BioTek) and after washing, the plate was further incubated for 30 minutes at room temperature in the dark to allow for complete de-esterification of the Fluo-4-AM. The buffer solutions were discarded, the plate was washed 5 times with 100 μl reduced calcium C1 wash buffer and finally the cells were reconstituted in 180 μl of reduced calcium C1 wash buffer.
(§6) For assay reading, the plate was placed in a FLIPR (fluorescence imaging plate reader (FLIPR-Tetra, Molecular Devices)), and receptor activation was initiated following addition of 20 μl of a 10× concentrated ligand stock solution, which were prepared in reduced calcium C1 buffer.
(§7) Fluorescence was continuously monitored for 15 seconds prior to ligand addition and for 105 seconds after ligand addition (45-105 sec may be sufficient).
(§8) Receptor activation is determined by the increase in peak fluorescence (F) normalized to the baseline fluorescence (F0). The data are normalized using the following equation: ΔF/F=(F−F0)/F0, where F is the peak fluorescence signal and F0 is the baseline fluorescence signal, wherein the baseline fluorescence represents the mean fluorescence calculated for the first 10 to 15 seconds prior to ligand addition.
(§9) This value obtained corresponds to the calcium increase of the cell in response to a direct or indirect interaction with the transfected receptor (“signal”).
(§10) As a negative control, mock transfected cells were exposed to the same concentration of ligand and the concentration of calcium traces not corresponding to a signal was determined.
(§11) HEK293T cells that stably express Gα16-gustducin 44 (formed as described in WO 2004/055048) were transfected with the CSR::T1R1, CSR::T1R3 constructs, or with hCaSR as follows:
On day 0, the HEK293T/Gα16-gustducin 44 cells were plated in 96-well black, clear-bottom plates at a density of 8500 cells per well and grown overnight in selective growth media. […]

[2] = tested on: CSR:T1R1/CSR:T1R3 chimeric heterodimer; experiment: Fluo-4 calcium assay, cells transfected with CSR:T1R1 and CSR:T1R3; type: cell-based, human; conditions: for response (calcium signal) of CSR:T1R1/CSR:T1R3 chimeric heterodimer, in words / CSR:T1R1/CSR:T1R3 AVG (mean ΔF/F): Calcium Chloride 2 mM, 745047-97-6 25 μM; for CSR:T1R1/CSR:T1R3 AVG (mean ΔF/F): HEK293T/Gα16-gustducin 44 cells, six replicates, MSG 2.5 mM + IMP 0.2 mM; for signal in CSR:T1R1/CSR:T1R3 cells as magnitude of signals obtained in cells transfected with the hCaSR receptor: relative to hCaSR transfected cells
Experimental: as §1, §2, §3, §4, §5, §6, §7, §8, §9, §10, §11
On day 0, the HEK293T/Gα16-gustducin 44 cells were plated in 96-well black, clear-bottom plates at a density of 8500 cells per well and grown overnight in selective growth media. On day 1, the media was changed to an antibiotic-free and serum-free growth medium and the cells were transfected using 75 ng each of CSR:T1R1 and CSR:T1R3 (total 150 ng), T1R1 and T1R3 (total 150 ng), or 75 ng hCaSR vector construct DNA and 0.3 μl of Lipofectamine 2000 (Invitrogen).
For transfection of either the CSR:T1R1/CSR:T1R3 heterodimer, 75 ng of each vector construct was combined for a total of 150 ng per pair and used together with 0.3 μl of Lipofectamine 2000. 75 ng of hCaSR vector DNA was used for this calcium-sensing monomeric GPCR […]

hCaSR = target: T1, hCaSR (Homo sapiens, UniProt P41180, E1011Q); experiment: Fluo-4 calcium assay, cells transfected with hCaSR; type: cell-based; conditions: Calcium Chloride 2 mM, 745047-97-6 25 μM, MSG 2.5 mM + IMP 0.2 mM; for hCaSR AVG (mean ΔF/F): HEK293T/Gα16-gustducin 44 cells, six replicates
T1 construct: For hCaSR, a commercially available pCMV-based vector construct which is based on the full length cDNA was used; host or cells: HEK293T cells stably expressing Galpha16-gustducin 44, transiently transfected with 75 ng of vector
T1 sequence (P41180 20-1078 E1011Q): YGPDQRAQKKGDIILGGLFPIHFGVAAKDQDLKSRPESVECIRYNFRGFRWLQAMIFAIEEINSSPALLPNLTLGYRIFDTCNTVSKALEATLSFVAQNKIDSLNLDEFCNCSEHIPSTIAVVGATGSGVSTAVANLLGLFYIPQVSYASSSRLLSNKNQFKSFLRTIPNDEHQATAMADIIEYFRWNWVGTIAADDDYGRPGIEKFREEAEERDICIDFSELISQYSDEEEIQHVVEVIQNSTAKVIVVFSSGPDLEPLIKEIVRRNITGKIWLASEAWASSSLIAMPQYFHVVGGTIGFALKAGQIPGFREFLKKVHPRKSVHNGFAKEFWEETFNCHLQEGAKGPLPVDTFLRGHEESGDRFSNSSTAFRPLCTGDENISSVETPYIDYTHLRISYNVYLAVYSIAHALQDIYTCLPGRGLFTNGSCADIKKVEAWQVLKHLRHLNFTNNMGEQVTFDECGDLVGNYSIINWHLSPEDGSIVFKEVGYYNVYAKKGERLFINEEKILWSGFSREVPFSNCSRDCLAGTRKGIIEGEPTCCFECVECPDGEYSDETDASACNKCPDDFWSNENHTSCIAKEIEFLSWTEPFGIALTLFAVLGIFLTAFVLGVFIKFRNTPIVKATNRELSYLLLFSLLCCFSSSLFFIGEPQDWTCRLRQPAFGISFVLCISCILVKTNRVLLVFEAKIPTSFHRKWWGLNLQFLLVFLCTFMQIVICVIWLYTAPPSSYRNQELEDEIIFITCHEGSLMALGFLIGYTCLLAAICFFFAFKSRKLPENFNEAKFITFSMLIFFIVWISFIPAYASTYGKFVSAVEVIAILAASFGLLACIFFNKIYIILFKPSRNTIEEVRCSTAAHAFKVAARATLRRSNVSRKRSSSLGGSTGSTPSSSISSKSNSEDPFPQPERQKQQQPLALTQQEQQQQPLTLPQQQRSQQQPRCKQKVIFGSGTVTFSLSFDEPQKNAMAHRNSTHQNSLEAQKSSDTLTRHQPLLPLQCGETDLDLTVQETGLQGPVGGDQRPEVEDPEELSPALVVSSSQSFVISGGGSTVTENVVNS
Experimental: as §1, §2, §3, §4, §5, §6, §7
as §8, with “addition. […]” for “addition.”
As a negative control, mock transfected cells were exposed to the same concentration of ligand and the concentration of calcium traces not corresponding to a signal was determined. […]

[3] = tested on: Mock transfected HEK293T/Gα16-gustducin 44 cells; experiment: Fluo-4 calcium assay, mock transfection (negative control); type: cell-based; conditions: Calcium Chloride 2 mM, 745047-97-6 25 μM; for Neg. control (mock transfection) AVG (mean ΔF/F): mock transfected cells, six replicates, MSG 2.5 mM + IMP 0.2 mM
Experimental: as §1, §2, §3
as §4, with “Reduced calcium C1 buffer solution contains 130 mM NaCl, 5 mM KCl, 10 mM Hepes, 0.5 mM CaCl2 (reduced from 2 mM) and 10 mM glucose (pH 7.4).” left out
as §6, §7
as §8, with “addition. […]” for “addition.”
as §10
The intracellular calcium response following stimulation with various ligands was determined in HEK293T cells stably expressing Gα16-gustducin 44 and transfected with CSR:T1R1 and/or CSR:T1R3 chimeric constructs. […]
The transfections were performed as described in example 4. Results were calculated as described in example 1 (data indicates the normalized increase in fluorescence over baseline after stimulation (ΔF/F); the mean (AVG) and the ±Standard deviation (STD) of six replicate experiments is given). […]
The calcium mobilization signals obtained are increase in peak fluorescence (F) normalized to the baseline fluorescence (F0). […]

SMILES | response (calcium signal) of CSR:T1R1 chimeric homomer, in words [1] | CSR:T1R1 AVG (mean ΔF/F) [1] | response (calcium signal) of CSR:T1R1/CSR:T1R3 chimeric heterodimer, in words [2] | CSR:T1R1/CSR:T1R3 AVG (mean ΔF/F) [2] | signal in CSR:T1R1/CSR:T1R3 cells as magnitude of signals obtained in cells transfected with the hCaSR receptor [2] | hCaSR AVG (mean ΔF/F) (hCaSR) | response in mock transfected negative control, in words [3] | Neg. control (mock transfection) AVG (mean ΔF/F) [3] | response (calcium signal) of CSR:T1R1 chimeric homomer, in words ([1]; listed as calcium) | response (calcium signal) of CSR:T1R1 chimeric homomer, in words ([1]; listed as calcium chloride) | response (calcium signal) of CSR:T1R1/CSR:T1R3 chimeric heterodimer, in words ([2]; listed as calcium) | response (calcium signal) of CSR:T1R1/CSR:T1R3 chimeric heterodimer, in words ([2]; listed as calcium chloride) | response (calcium signal) of hCaSR, in words (hCaSR; listed as calcium) | response (calcium signal) of hCaSR, in words (hCaSR; listed as calcium chloride)
COc1cc(C)ccc1CNC(=O)C(=O)NCCc1ccccn1 [745047-97-6-oxalamide, N-(2-Methoxy-4-methyl-benzyl)-N′-(2-pyridin-2-yl-ethyl)-oxalamide] | significant increase of the signal; also recorded: activated | 0.31 | significant increase of the signal; also recorded: significantly higher the background signals; also recorded: activated | 0.43 | approximately 50% | 0.04 | No response | 0.03 |  |  |  |  |  | 
[Ca+2].[Cl-].[Cl-] [Calcium, Calcium Chloride] |  | 0.78 |  | 0.72 | approximately 50% | 1.44 | No response | 0.24 | react to calcium; also recorded: activated | significant increase of the signal | react to calcium; also recorded: activated | significant increase of the signal; also recorded: significantly higher the background signals | react to calcium | responded
